The subject of assay [1] is dopaminergic neurons grafted to hemiparkinsonian rats. The conditions noted are these: cited from earlier work.
The target of a further assay is T1, rCaspase 3 (Homo sapiens, UniProt P42574).
T1 construct: purchased PharMingen, a Becton division company, San Diego, Calif
T1 sequence (P42574 29-175 limits assumed): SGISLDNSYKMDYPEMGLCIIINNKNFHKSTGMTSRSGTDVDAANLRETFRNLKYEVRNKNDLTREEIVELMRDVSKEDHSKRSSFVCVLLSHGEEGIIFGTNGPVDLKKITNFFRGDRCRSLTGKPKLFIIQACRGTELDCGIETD
The assay can be described thus: fluorometric caspase-3 enzyme assay (Ac-DEVD-AMC substrate). Type of assay: biochemical. To be noted: 2 ng rCaspase 3, 10 μM Ac-DEVD-AMC, 37° C., 30 minutes. As for the experimental part: Enzyme activity was measured using synthetic peptide substrates attached to a fluorogenic leaving group. Cleavage of the synthetic substrate by the enzyme results in a fluorescent signal which is read in a spectrofluorometer or in a fluorometric microtiter plate reader.
12 concentrations of the testing compound ranged from 30 μM to […] were tested in the enzyme assay. The enzyme reaction was conducted in the presence of 2 ng rCaspase 3 (purchased from PharMingen, a Becton division company, San Diego, Calif.), various concentrations of testing compound, 10 μM caspase 3 substrate Ac-DEVD-AMC (SEQ ID NO:3) (purchased from Quality Controlled Biochemicals, Inc. Hopkinton, Mass.) and caspase buffer (20 mM PIPES, 100 mM NaCl, 10 mM DTT, 1 mM EDTA, 0.1% CHAPS and 10% sucrose, pH 7.2) in a total volume of 100 μl. The enzyme reaction was carried out in a 96-well plate and incubated at 37° C. for 30 minutes. The plate was then read with a fluorescence plate reader (EG&G WALLAG 1420-002) using excitation filter at 355 nm/emission filter at 460 nm. The data was analyzed using GraphPrism software.

Setting [2] is: treatment of the embryonic nigral cell suspension.

cmk = not defined here

Consider “Ac-YVAD-cmk (reading uncertain; also: printed as Ac-YVAD-cmk)”, for which the functional recovery entry in assay [1] (hemiparkinsonian rats) is “substantially improved functional recovery”. Also, in assay [1] (setting [2]), the “DNA fragmentation and apoptosis in transplants” value is “mitigated DNA fragmentation and reduced apoptosis in transplants”; the “survival of dopaminergic neurons grafted to hemiparkinsonian rats” value is “increased survival of dopaminergic neurons”.

The molecule `CCOC(=O)NC(C(=O)NC(CC(=O)O)C(=O)CF)C(C)C` (stereo not drawn) [Ethoxycarbonyl-Val-Asp-fmk] came in with a concentration for half-maximal inhibition (IC50) against rCaspase 3 of 58 nM.

In turn, `CC(C)C(NC(=O)OCC1CCCCC1)C(=O)NC(CC(=O)O)C(=O)CF` (stereo not drawn) [Cyclohexylmethoxycarbonyl-Val-Asp-fmk] displayed an IC50 against rCaspase 3 of 72 nM.

Broadly, the IC50 is the midpoint of a concentration-inhibition curve. A higher IC50 goes with lower potency.

The record behind these values is patent publication US6716818B2, “Caspase inhibitors and the use thereof” (Cytovia, Inc., priority 1999, dated 2004).
